Assay [1] can be described thus: Antiproliferative activity against human FEK4 cells assessed as inhibition of cell proliferation after 3 days by MTS assay. The format is cell-based. The settings on record: FEK4, 72 h. In general terms: Formazan colour is commonly taken as a measure of viable cells.
The next assay deals with LNCaP. In words: Antiproliferative activity against human LNCAP cells assessed as inhibition of cell proliferation after 3 days by MTS assay. The class given is functional, cell-based. The settings on record: 72 h.
A further assay has as its system MDA-MB-231. Briefly: Antiproliferative activity against human MDA-MB-231 cells assessed as inhibition of cell proliferation after 3 days by MTS assay. The format is functional, cell-based. The conditions noted are these: MDA-MB-231, 72 h.
Assay [2] relates to HT-29. Briefly: Antiproliferative activity against human HT-29 cells assessed as inhibition of cell proliferation after 3 days by MTS assay. The class given is functional, cell-based. The settings on record: HT-29, 72 h.
For another assay, the target named is Tubulin (Homo sapiens) (UniProt P68371+Q9H4B7+P0DPH7+P68366+Q13509+Q71U36+P04350+Q3ZCM7+P07437+P68363+Q9BQE3+Q6PEY2+Q13885+Q9BVA1+Q9BUF5). Briefly: Induction of tubulin (unknown origin) polymerization. The class given is protein-complex assay.
The subject of a further assay is HCT-116. In words: Inhibition of human HCT116 cell proliferation. The class given is functional, cell-based.
For another assay, the system named is A2780. Briefly: Inhibition of human A2780 cell proliferation. The format is functional, cell-based.
Assay [3] relates to HT-29. Briefly: Inhibition of human HT-29 cell proliferation. The class given is functional, cell-based.
Another assay deals with K562. In words: Inhibition of human K562 cell proliferation. The format is functional, cell-based.

Each structure is given as a SMILES string. pIC50: −log10 of the molar value.

The values below come from ChEMBL document CHEMBL3217660, “Design, synthesis and antiproliferative activity of urocanic-chalcone hybrid derivatives” (Medchemcomm, 2011).

By pIC50 is commonly meant the negative decadic logarithm of the IC50, by convention in mol/L.

Consider `COc1cc(C(=O)/C=C/c2nccn2C)cc(OC)c1OC`, for which the pIC50 was 4.76 in [1], 4.96 in the assay on LNCaP, 5.31 in the assay on MDA-MB-231 and 5.38 in the assay with HT-29 [2].
The corresponding values for `COc1cc(C(=O)/C=C/c2ncc[nH]2)cc(OC)c1OC` are 4.54, 4.77, 5.31 and 5.30.
`COc1cc(C(=O)CCc2cnc[nH]2)cc(OC)c1OC`: the pIC50 in assay [1] was below 3.30; in the assay on LNCaP it was 3.43; in the assay with MDA-MB-231, 3.65; in the assay with HT-29 [2], below 3.30.
For the compound `COc1cc(C(=O)/C=C/c2cncn2C)cc(OC)c1OC`, the pIC50 is 4.30 in assay [1], 4.51 in the assay with LNCaP, 4.77 with MDA-MB-231 and 4.80 with HT-29 [2].
For the compound `COc1ccc(C(=O)/C=C/c2cccn2C)cc1OC`, the pIC50 was 3.79 in [1], 4.25 in the assay with LNCaP, 4.37 with MDA-MB-231 and 4.22 in the assay on HT-29 [2].
For the compound `O[C@H]1C/C=C\CC[C@@H]2C=C[C@H]1O2`, the ED90 at Tubulin (Homo sapiens) was found to be 3 µM.
As to `COc1ccc(C(=O)/C=C/c2ccc[nH]2)cc1OC`, the pIC50 in [1] is 3.87; in the assay with LNCaP it was 3.98; with MDA-MB-231, 3.99; in the assay on HT-29 [2] it was 4.07.
For the compound `COc1cc(C(=O)/C=C/c2cccn2C)cc(OC)c1OC`, the negative-log IC50 (pIC50) was 3.93 in assay [1], 4.16 with LNCaP, 4.74 with MDA-MB-231 and 4.90 with HT-29 [2].
The corresponding values for `COc1cc(C(=O)/C=C/c2ccc[nH]2)cc(OC)c1OC` are 3.81, 4.22, 4.30 and 4.37.
As to `CC1=CC[C@H](C(C)C)[C@H]2C[C@H](OC(=O)C(C)(C)C)[C@@H](O)/C=C\C[C@@H](OC(=O)/C=C/c3cn(C)cn3)C[C@@H]12`, the pIC50 is 5.40 in the assay with HCT-116, 5.40 with A2780, 5.30 with HT-29 [2] and 5.30 in the assay on HT-29 [3]. This compound showed an ED90 at Tubulin (Homo sapiens) of 1.8 µM.
On to `COc1ccc(O[C@@H]2/C=C\CC(O)C[C@@H]3[C@@H](C(C)C)CC=C(C)[C@@H]3C[C@@H]2OC(=O)/C=C/c2cn(C)cn2)cc1` (single isomer, unassigned), for which the pIC50 was 5.64 in the assay on K562, 6.05 in the assay on HCT-116 and 5.72 in the assay on A2780. Also, the ED90 at Tubulin (Homo sapiens) was 0.5 µM.
In the case of `COc1ccc(C(=O)/C=C/c2ccc[nH]2)cc1`, the negative logarithm of the IC50 (pIC50) (in assay [1]; in the assay with LNCaP; in the assay with MDA-MB-231; with HT-29 [2]) was below 3.30 each time.
As to `COc1ccc(C(=O)/C=C/c2cnc[nH]2)cc1OC`, the pIC50 is 4.07 in [1], 4.34 in the assay with LNCaP, 4.74 in the assay with MDA-MB-231 and 4.42 in the assay on HT-29 [2].
With `COc1ccc(C(=O)/C=C/c2cccn2C)cc1`, the pIC50 in assay [1] was 3.73; in the assay with LNCaP it was 4.12; in the assay on MDA-MB-231, 4.27; in the assay with HT-29 [2], 4.21.
Consider `COc1cccc2c1C(=O)c1c(O)c3c(c(O)c1C2=O)C[C@@](O)(C(=O)CO)C[C@@H]3O[C@H]1C[C@H](N)[C@H](O)[C@H](C)O1` [DOXORUBICIN], for which the pIC50 with LNCaP is 6.81; in the assay on MDA-MB-231, 6.92; in the assay with HT-29 [2], 6.79.
On Tubulin (Homo sapiens), `Cn1cnc(/C=C/C(=O)O[C@H]2C/C=C\CC[C@@H]3C=C[C@H]2O3)c1` yielded an ED90 of 6 µM.
As for `CC(=O)O[C@H]1C(=O)[C@@]2(C)[C@H]([C@H](OC(=O)c3ccccc3)[C@]3(O)C[C@H](OC(=O)[C@H](O)[C@@H](NC(=O)c4ccccc4)c4ccccc4)C(C)=C1C3(C)C)[C@]1(OC(C)=O)CO[C@@H]1C[C@@H]2O` [PACLITAXEL], the ED90 on Tubulin (Homo sapiens) is 0.5 µM. In the assay on HT-29 [2], the pIC50 was above 8.30.
In the case of `COc1cc(C(=O)/C=C/c2cn(C)cn2)cc(OC)c1OC`, the pIC50 was 4.07 in [1], 4.32 with LNCaP, 5.32 in the assay with MDA-MB-231 and 5.54 with HT-29 [2].
Take `COc1cc(C(=O)/C=C/c2cnc[nH]2)cc(OC)c1OC`: the negative-log IC50 (pIC50) was 4.27 in assay [1], 4.32 in the assay with LNCaP, 4.64 in the assay with MDA-MB-231 and 4.71 in the assay on HT-29 [2].
